{"source": "patent US11833119B2", "about": "“Combination therapies for the treatment of hepatocellular carcinoma” (priority 2018, dated 2023)", "key": {"[1]": {"system": "Hep3B xenograft (human hepatocellular cancer cell line)", "assay": "Hep3B cells xenograft in vivo study, antitumor activity", "set-up": "species or system BALB/c nu/nu female mice", "conditions": "for Tumor growth inhibition % (TGI): 53 days", "method": "The cell line used, Hep3B (also called HEP3B.1-7), was sourced from American Type Culture Collection (ATCC), verified free of […] contamination and verified for identity by short tandem repeat analysis of 9 markers.\nFor the human hepatocellular cancer cell line Hep3B xenografts, Hep3B cells were cultured in RPMI1640 medium containing 10% FBS at 37° C. in a 5% CO2 atmosphere and kept in exponential growth phase. For harvesting, the cells were washed with PBS, incubated with 0.25% trypsin-EDTA, and suspended in a 1:1 mixture of RPMI1640 medium containing 10% FBS. To prepare the inoculum at a final concentration of 5×10^7 cells/mL, the cell were spun and resuspended in RPMI1640 and Matrigel (Corning). To generate xenografts, 0.1-mL of the inoculum was injected subcutaneously into the right flank region of BALB/c nu/nu female mice, approximately 8-week-old, weighing 18-20 g, giving a final concentration of 5×10^6 cells/mouse.\nWhen the mean tumor volume (TV) reached approximately 170 mm^3 (10 days after implantation), mice were selected based on their TVs, and were sorted into multiple treatment groups with 8 animals per group. Per os (PO) treatment with Compound 1 (300 mg/kg for Hep3B and 500 mg/kg for LIX125) alone or in combination with lenvatinib vehicle (control) or lenvatinib (10 mg/kg or 3 mg/kg) administered once daily (QD). Additional groups included treatment with lenvatinib (10 mg/kg or 3 mg/kg) in combination with Compound 1 vehicle. (Lenvatinib vehicle includes the vehicle in which lenvatinib is administered; but, without any lenvatinib. Likewise, Compound 1 vehicle includes the vehicle in which Compound 1 is administered; but, without any Compound 1.)\nThe administration volume (0.1 mL/10 g body weight) was calculated from the individual mouse body weight (BW) before administration. Body weights were measured daily and tumor measurements were performed twice weekly. Mice with >20% body weight loss compared with their day 1 body weight or bearing tumors with the longest diameter […] were immediately euthanized to prevent any pain or suffering for the animal.\n(§1) The tumor volume (TV) in mm^3 was calculated according to the following formula: TV=length×width^2×0.5 length: largest diameter of tumor (mm) width: diameter perpendicular to length (mm). The tumor growth inhibition % (TGI) was calculated according to the following formula: Tumor growth inhibition % (TGI)=[(Average control TV day X−Treatment TV day X)/(Average control TV day X)]×100, where day X is any day of the treatment. The antitumor effects of the treatment, partial regression (PR) and complete regression (CR), stable disease (SD), and progressive disease (PD) were defined as follows: […]\nPD: 3 consecutive measurements >120% of starting volume or 3 consecutive increasing measurements from best response; SD: 3 consecutive measurements >50% and <120% of starting volume; PR: 3 consecutive measurements <50% of starting volume; CR: 3 consecutive measurements <30 mm^3.\nData represent the mean±SEM for tumor volume (N=8). The differences in TV between groups were analyzed by multiple unpaired t-tests with significance determined using the Holm-Sidak method. Statistical analyses were performed using the GraphPad Prism version 7 (GraphPad Software, La Jolla, CA).\nTo determine whether lenvatinib enhances tumor growth inhibition (TGI) exerted by Compound 1, the Hep3B cell line was grown as a xenograft in female nude immunocompromised mice. Tumor bearing mice were orally treated daily for 53 days with (a) 300 mg/kg Compound 1 as single agent with lenvatinib vehicle; (b)(i) 10 mg/kg lenvatinib as a single agent with Compound 1 vehicle; (b)(ii) 3 mg/kg lenvatinib as a single agent with Compound 1 vehicle; (c)(i) 300 mg/kg Compound 1 and 10 mg/kg lenvatinib in combination; or (c)(ii) 300 mg/kg Compound 1 and 3 mg/kg lenvatinib in combination."}, "[2]": {"system": "LIX125, a hepatocellular carcinoma patient derived xenograft (PDX) model", "assay": "LIX125 PDX xenograft in vivo study, antitumor activity", "conditions": "32 days", "method": "The human primary hepatocellular model LIX125 from ChemPartner (shangpharma.com) was implanted into the female severe combined immunodeficiency (SCID) mice. When the tumors developed in mice, they were sacrificed and the resected tumors were implanted into female NU/NU mice for tumor preservation, histological diagnosis and in vivo efficacy study. Solid tumor tissues were depleted of necrotic components, cut into 10-15 mg pieces and mixed. Three to five pieces were mixed with […] Matrigel and implanted into a flank of 6-8 week old female NU/NU immune compromised mice weighing 18-20 g. All of the primary tumors utilized in this study had undergone 3 to 5 passages in vivo and the tumor histology of each was maintained over the serial transplantation.\nWhen the mean tumor volume (TV) reached approximately 170 mm^3 (10 days after implantation), mice were selected based on their TVs, and were sorted into multiple treatment groups with 8 animals per group. Per os (PO) treatment with Compound 1 (300 mg/kg for Hep3B and 500 mg/kg for LIX125) alone or in combination with lenvatinib vehicle (control) or lenvatinib (10 mg/kg or 3 mg/kg) administered once daily (QD). […]\nThe administration volume (0.1 mL/10 g body weight) was calculated from the individual mouse body weight (BW) before administration. Body weights were measured daily and tumor measurements were performed twice weekly. […]\nas §1, with “treatment.” for “treatment. The antitumor effects of the treatment, partial regression (PR) and complete regression (CR), stable disease (SD), and progressive disease (PD) were defined as follows:”\nData represent the mean±SEM for tumor volume (N=8). The differences in TV between groups were analyzed by multiple unpaired t-tests with significance determined using the Holm-Sidak method. […]"}}}
{"smiles": "C=CC(=O)Nc1cc(N2CCN(CC)CC2)ccc1Nc1cc(N(C)C(=O)Nc2c(Cl)c(OC)cc(OC)c2Cl)ncn1", "note": "[Compound 1, N-(2-((6-(3-(2,6-dichloro-3,5-dimethoxyphenyl)-1-methylureido)pyrimidin-4-yl)amino)-5-(4-ethylpiperazin-1-yl)phenyl)acrylamide]", "values": [{"measurement": "Tumor growth inhibition % (TGI)", "setting": "[1]; Compound 1 300 mg/kg PO QD single agent with lenvatinib vehicle, vs vehicle control P<0.00001", "value": 81, "unit": "%"}, {"measurement": "animals with progressive disease (PD)", "setting": "[1]; Compound 1 300 mg/kg single agent, PD: 3 consecutive measurements >120% of starting volume or 3 consecutive increasing measurements from best response", "value": "6/8"}, {"measurement": "Tumor growth inhibition % (TGI)", "setting": "[2]; Compound 1 500 mg/kg PO QD single agent, vs vehicle controls p>0.05", "value": 60, "unit": "%"}]}
{"smiles": "COc1cc2nccc(Oc3ccc(NC(=O)NC4CC4)c(Cl)c3)c2cc1C(N)=O", "note": "[Lenvatinib, 4-[3-chloro-4-(N′-cyclopropylureido)phenoxy]-7-methoxyquinoline-6-carboxamide]", "values": [{"measurement": "Tumor growth inhibition % (TGI)", "setting": "[1]; lenvatinib 3 mg/kg PO QD single agent with Compound 1 vehicle, vs vehicle controls P>0.05", "value": 23, "unit": "%"}, {"measurement": "animals with progressive disease (PD)", "setting": "[1]; lenvatinib 3 mg/kg single agent", "value": "8/8"}, {"measurement": "Tumor growth inhibition % (TGI)", "setting": "[1]; lenvatinib 10 mg/kg PO QD single agent with Compound 1 vehicle, vs vehicle controls P<0.00005", "value": 58, "unit": "%"}, {"measurement": "animals with progressive disease (PD)", "setting": "[1]; lenvatinib 10 mg/kg single agent", "value": "8/8"}, {"measurement": "Tumor growth inhibition % (TGI)", "setting": "[2]; lenvatinib 3 mg/kg PO QD single agent, vs vehicle control p>0.05", "value": 44, "unit": "%"}, {"measurement": "Tumor growth inhibition % (TGI)", "setting": "[2]; lenvatinib 10 mg/kg PO QD single agent, vs vehicle control p<0.0007", "value": 72, "unit": "%"}]}
